In patent US20200253877A1, “GEMCABENE, PHARMACEUTICALLY ACCEPTABLE SALTS THEREOF, COMPOSITIONS THEREOF AND METHODS OF USE THEREFOR” (NEUROBO PHARMACEUTICALS, INC., priority 2018, published 2020):

System: hepatic mRNA expression in STAM™ mice
Test: Murine STAM model of NASH-HCC: hepatic gene expression by quantitative RT-PCR
Type: in vivo, mouse
Conditions: n = 8, STAM mice, normalized to non-treated group
Method: A study was performed to evaluate the efficacy of gemcabene calcium salt hydrate Crystal Form 1 having a PSD90 of 52 μm as measured by laser light diffraction, in treating non-alcoholic steatosis hepatitis (NASH) in the murine STAM™ model of NASH-HCC.
Briefly, two-day old neonatal C57BL/6 male mice were administered low-dose streptozotocin (STZ), and were subsequently fed a HFC diet from 4 weeks of age. In this model, the mice typically develop liver steatosis and diabetes, reaching steatohepatitis within 3 weeks, followed by cirrhosis within 8 weeks, and carcinoma within 16 weeks. In the current study, mice were administered daily oral gemcabene calcium salt hydrate Crystal Form 1 starting at week 6 of age and were sacrificed at week 9. […] These STAM™ groups were orally administered from week 6 one of the following: water-vehicle, gemcabene calcium salt hydrate Crystal Form 1 at 30, 100 and 300 mg/kg daily, or telmisartan ([…]®) 10 mg/kg daily. […] All groups were sacrificed at week 9. Vehicle, gemcabene calcium salt hydrate Crystal Form 1, or telmisartan were administered by oral gavage once daily.
Various gene expression markers of liver metabolism were evaluated by Real-Time PCR (RT-PCR) in all mouse groups. Total RNA was extracted from liver samples using RNAiso (Takara Bio, Japan) according to the manufacturer's instructions. […] of RNA was reverse-transcribed using a reaction mixture containing 4.4 mM MgCl2 (F. Hoffmann-La Roche, Switzerland), 40 U RNase inhibitor (Toyobo, Japan), 0.5 mM dNTP (Promega, USA), 6.28 μM random hexamer (Promega), 5×first strand buffer (Promega), 10 mM dithiothreitol (Invitrogen, USA) and 200 U MMLV-RT (Invitrogen) in a final volume of 20 μL. The reaction was carried out for 1 hour at 37° C., followed by 5 minutes at 99° C. Real-time PCR was performed using real-time PCR DICE and SYBR premix Taq (Takara Bio). To calculate the relative mRNA expression level, the expression of each gene was normalized to that of reference gene 36B4 (gene symbol: RplpO). Information of PCR-primer sets is described in Tables 37A-37C. Statistical analyses were performed using the Bonferroni Multiple Comparison Test on GraphPad Prism 6 (GraphPad Software Inc., USA). P values <0.05 were considered statistically significant. Results are expressed as mean±SD.
In order to calculate the relative mRNA expression level, the expression of each gene was normalized to that of the reference gene 36B4 (gene symbol: RplpO). The gene expression levels were measured by quantitative RT-PCR. Results were normalized with values for the vehicle-treated normal group. […] Gemcabene calcium salt hydrate Crystal Form 1 (PSD90=52 μm) modulated the mRNA expression of many hepatic genes that play a significant role in the liver homeostasis and injury.

Compound: CC(C)(CCCCOCCCCC(C)(C)C(=O)O)C(=O)O [gemcabene, 6-(5-carboxy-5-methyl-hexyloxy)-2,2-dimethyl-hexanoic acid]
- ACC1 gene expression (mean ± SD) (30 mg/kg): 1.0 ± 0.1
- ACC2 gene expression (mean ± SD) (30 mg/kg): 0.6 ± 0.2
- ADH-4 gene expression (mean ± SD) (30 mg/kg): 0.8 ± 0.2
- ANGPTL3 gene expression (mean ± SD) (30 mg/kg): 0.7 ± 0.2
- ANGPTL4 gene expression (mean ± SD) (30 mg/kg): 2.9 ± 0.5
- ANGPTL8 gene expression (mean ± SD) (30 mg/kg): 0.3 ± 0.1
- ApoC-III gene expression (mean ± SD) (30 mg/kg): 0.7 ± 0.1
- CCR2 gene expression (mean ± SD) (30 mg/kg): 3.3 ± 1.0
- CCR5 gene expression (mean ± SD) (30 mg/kg): 2.4 ± 0.9
- CRP gene expression (mean ± SD) (30 mg/kg): 0.9 ± 0.2
- CXCL1/KC gene expression (mean ± SD) (30 mg/kg): 0.8 ± 0.4
- Fetuin-A gene expression (mean ± SD) (30 mg/kg): 1.1 ± 0.4
- IL-1β gene expression (mean ± SD) (30 mg/kg): 1.0 ± 0.5
- IL-6 gene expression (mean ± SD) (30 mg/kg): 4.6 ± 4.7
- LDL receptor gene expression (mean ± SD) (30 mg/kg): 0.9 ± 0.2
- LPL gene expression (mean ± SD) (30 mg/kg): 3.8 ± 0.9
- MCP-1 gene expression (mean ± SD) (30 mg/kg): 3.2 ± 1.5
- MIP-1β gene expression (mean ± SD) (30 mg/kg): 5.4 ± 3.2
- MMP-2 gene expression (mean ± SD) (30 mg/kg): 1.7 ± 0.5
- NF-κB gene expression (mean ± SD) (30 mg/kg): 1.3 ± 0.2
- PNPLA3 gene expression (mean ± SD) (30 mg/kg): 0.3 ± 0.1
- SCD1 gene expression (mean ± SD) (30 mg/kg): 0.2 ± 0.1
- SREBP-1 gene expression (mean ± SD) (30 mg/kg): 0.9 ± 0.2
- Sulf-2 gene expression (mean ± SD) (30 mg/kg): 5.1 ± 1.1
- TIMP-1 gene expression (mean ± SD) (30 mg/kg): 9.9 ± 4.9
- TNF-α gene expression (mean ± SD) (30 mg/kg): 4.0 ± 1.8
- α-SMA gene expression (mean ± SD) (30 mg/kg): 2.6 ± 0.6
- ACC1 gene expression (mean ± SD) (100 mg/kg): 0.7 ± 0.1
- ACC2 gene expression (mean ± SD) (100 mg/kg): 0.4 ± 0.1
- ADH-4 gene expression (mean ± SD) (100 mg/kg): 0.6 ± 0.1
- ANGPTL3 gene expression (mean ± SD) (100 mg/kg): 0.4 ± 0.1
- ANGPTL4 gene expression (mean ± SD) (100 mg/kg): 1.6 ± 0.3
- ANGPTL8 gene expression (mean ± SD) (100 mg/kg): 0.4 ± 0.1
- ApoC-III gene expression (mean ± SD) (100 mg/kg): 0.5 ± 0.0
- CCR2 gene expression (mean ± SD) (100 mg/kg): 1.6 ± 0.4
- CCR5 gene expression (mean ± SD) (100 mg/kg): 1.4 ± 0.3
- CRP gene expression (mean ± SD) (100 mg/kg): 0.6 ± 0.1
- CXCL1/KC gene expression (mean ± SD) (100 mg/kg): 0.2 ± 0.1
- Fetuin-A gene expression (mean ± SD) (100 mg/kg): 0.7 ± 0.1
- IL-1β gene expression (mean ± SD) (100 mg/kg): 1.1 ± 0.5
- IL-6 gene expression (mean ± SD) (100 mg/kg): 0.9 ± 0.3
- LDL receptor gene expression (mean ± SD) (100 mg/kg): 0.9 ± 0.2
- LPL gene expression (mean ± SD) (100 mg/kg): 7.4 ± 0.9
- MCP-1 gene expression (mean ± SD) (100 mg/kg): 1.7 ± 0.7
- MIP-1β gene expression (mean ± SD) (100 mg/kg): 2.3 ± 0.9
- MMP-2 gene expression (mean ± SD) (100 mg/kg): 0.5 ± 0.2
- NF-κB gene expression (mean ± SD) (100 mg/kg): 0.9 ± 0.1
- PNPLA3 gene expression (mean ± SD) (100 mg/kg): 0.2 ± 0.1
- SCD1 gene expression (mean ± SD) (100 mg/kg): 0.3 ± 0.1
- SREBP-1 gene expression (mean ± SD) (100 mg/kg): 0.9 ± 0.2
- Sulf-2 gene expression (mean ± SD) (100 mg/kg): 3.8 ± 0.7
- TIMP-1 gene expression (mean ± SD) (100 mg/kg): 3.8 ± 1.6
- TNF-α gene expression (mean ± SD) (100 mg/kg): 2.0 ± 0.8
- α-SMA gene expression (mean ± SD) (100 mg/kg): 2.4 ± 0.9
- ACC1 gene expression (mean ± SD) (300 mg/kg): 0.8 ± 0.1
- ACC2 gene expression (mean ± SD) (300 mg/kg): 0.5 ± 0.1
- ADH-4 gene expression (mean ± SD) (300 mg/kg): 0.5 ± 0.1
- ANGPTL3 gene expression (mean ± SD) (300 mg/kg): 0.4 ± 0.1
- ANGPTL4 gene expression (mean ± SD) (300 mg/kg): 1.7 ± 0.3
- ANGPTL8 gene expression (mean ± SD) (300 mg/kg): 0.2 ± 0.1
- ApoC-III gene expression (mean ± SD) (300 mg/kg): 0.4 ± 0.1
- CCR2 gene expression (mean ± SD) (300 mg/kg): 1.7 ± 0.7
- CCR5 gene expression (mean ± SD) (300 mg/kg): 1.3 ± 0.3
- CRP gene expression (mean ± SD) (300 mg/kg): 0.5 ± 0.1
- CXCL1/KC gene expression (mean ± SD) (300 mg/kg): 0.2 ± 0.1
- Fetuin-A gene expression (mean ± SD) (300 mg/kg): 0.7 ± 0.1
- IL-1β gene expression (mean ± SD) (300 mg/kg): 0.7 ± 0.3
- IL-6 gene expression (mean ± SD) (300 mg/kg): 0.6 ± 0.2
- LDL receptor gene expression (mean ± SD) (300 mg/kg): 0.8 ± 0.1
- LPL gene expression (mean ± SD) (300 mg/kg): 6.9 ± 1.1
